Results taken from article PMC11790914, “Chemogenomics for steroid hormone receptors (NR3)” (Communications Chemistry, 2025).
Values joined by “and” are separate entries in the source; they are usually repeats but may differ in a detail not shown here. Equal entries are not always repeated. Where two headings read alike, the source gives them in different places.

Legend:
HEK293T cells [1] = test: Cytotoxicity: necrosis induction (red fluorescent dye for permeable plasma membranes); type: cell-based; details: 1 µM, 24 h, necrotic cell count normalized to 0.1% DMSO, single replicates;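 further: compounds applied in DMEM high glucose with 0.1% FCS and 0.1% DMSO, necrotic HEK293T cells counted by red staining of cells whose plasma membranes had become permeable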
ABL1 = biological target: T1, ABL1 (Homo sapiens, UniProt P00519); test: Liability panel screening by DSF: ABL1; type: binding; details: read-out: Mean ΔTM ABL1
T1 construct: made in house
Protocol: (§1) Reference ligands are listed in the methods section.
(§2) In-house produced recombinantly expressed proteins[62] of the liability panel targets were diluted in a buffer containing 10 mM HEPES (pH 7.5) and 500 mM NaCl to a concentration of 2 µM. SYPRO Orange (Invitrogen, Carlsbad, California, USA; #S6650) as a fluorescence probe was added at a 1:1000 dilution to the proteins. […] Temperature-dependent unfolding profiles were measured on a QuantStudio™ 5 real-time PCR machine (Thermo Fisher Scientific, Waltham, Massachusetts, USA; #A28140). […] The temperature was increased 3 °C per minute to a maximum temperature of 85 °C. Experiments were run as technical duplicates. […] Data were analyzed with the internal Thermal Shift Software (version 1.4, Thermo Fisher Scientific) using the Boltzmann equitation to determine the inflection point of the transition curve. Differences in melting temperature are given as ∆Tm in K. […]
(§3) scanning fluorimetry (DSF).
(§4) a concentration of 20 µM.

AURKA = biological target: T2, AURKA (Homo sapiens, UniProt O14965); test: Liability panel screening by DSF: AURKA; type: binding; details: read-out: Mean ΔTM AURKA
T2 construct: made in house
T2 sequence (O14965 1-403): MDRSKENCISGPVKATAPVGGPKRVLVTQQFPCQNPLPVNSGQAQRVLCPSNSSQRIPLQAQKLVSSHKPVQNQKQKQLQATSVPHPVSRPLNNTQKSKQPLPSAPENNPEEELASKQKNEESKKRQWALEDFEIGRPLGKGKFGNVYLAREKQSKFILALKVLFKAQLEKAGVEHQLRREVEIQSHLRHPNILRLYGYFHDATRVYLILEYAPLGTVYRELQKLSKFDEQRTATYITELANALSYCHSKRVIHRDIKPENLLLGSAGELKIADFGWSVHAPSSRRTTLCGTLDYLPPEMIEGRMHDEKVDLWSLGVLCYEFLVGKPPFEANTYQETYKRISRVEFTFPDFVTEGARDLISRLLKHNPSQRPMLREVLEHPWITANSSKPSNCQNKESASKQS
Protocol: as §1, §2, §3, §4

CDK2 = biological target: T3, CDK2 (Homo sapiens, UniProt P24941); test: Liability panel screening by DSF: CDK2; type: binding; details: read-out: Mean ΔTM CDK2
T3 construct: made in house
Protocol: as §1, §2, §3, §4

FGFR3 = biological target: T4, FGFR3 (Homo sapiens, UniProt P22607); test: Liability panel screening by DSF: FGFR3; type: binding; details: read-out: Mean ΔTM FGFR3
T4 construct: made in house
Protocol: as §1, §2, §3, §4

GSK3B = biological target: T5, GSK3B (Homo sapiens, UniProt P49841); test: Liability panel screening by DSF: GSK3B; type: binding; details: read-out: Mean ΔTM GSK3B
T5 construct: made in house

BRD4 = biological target: T6, BRD4 (Homo sapiens, UniProt O60885); test: Liability panel screening by DSF: BRD4; type: binding; details: read-out: Mean ΔTM BRD4
T6 construct: This panel comprised ten highly ligandable kinases and bromodomains; made in house
Protocol: as §1, §2, §3, §4

BRPF1 = biological target: T7, BRPF1 (Homo sapiens, UniProt P55201); test: Liability panel screening by DSF: BRPF1; type: binding; details: read-out: Mean ΔTM BRPF1
T7 construct: This panel comprised ten highly ligandable kinases and bromodomains; made in house
T7 sequence (P55201 628-732 limits assumed): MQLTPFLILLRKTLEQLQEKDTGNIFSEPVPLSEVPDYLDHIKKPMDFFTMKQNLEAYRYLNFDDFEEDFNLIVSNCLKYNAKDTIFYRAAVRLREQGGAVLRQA
Protocol: as §1, §2, §3, §4

CSNK1D = biological target: T8, CSNK1D (Homo sapiens, UniProt P48730); test: Liability panel screening by DSF: CSNK1D; type: binding; details: read-out: Mean ΔTM CSNK1D
T8 construct: made in house
Protocol: as §1, §2, §3, §4

MAPK1 = biological target: T9, MAPK1 (Homo sapiens, UniProt P28482); test: Liability panel screening by DSF: MAPK1; type: binding; details: read-out: Mean ΔTM MAPK1
T9 construct: made in house
Protocol: as §1, §2, §3, §4

TRIM24 = biological target: T10, TRIM24 (Homo sapiens, UniProt O15164); test: Liability panel screening by DSF: TRIM24; type: binding; details: read-out: Mean ΔTM TRIM24
T10 construct: This panel comprised ten highly ligandable kinases and bromodomains; made in house
T10 sequence (O15164 899-1004 limits assumed): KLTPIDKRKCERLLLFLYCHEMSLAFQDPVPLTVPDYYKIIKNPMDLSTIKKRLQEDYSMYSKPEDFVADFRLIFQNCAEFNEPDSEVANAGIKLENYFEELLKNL
Protocol: as §1, §2, §3, §4

[2] = system: NF-κB activity in HEK293 NF-κB reporter cells; test: NF-kB activity assay (GFP reporter, ionomycin/PMA); type: cell-based; details: for Mean NFκB response: n=3
Outline: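 HEK293 NF-κB GFP reporter cells given compound in 0.1% DMSO for 4 h, then stimulated with ionomycin 100 ng/mL plus PMA 10 ng/mL. Imaged every 90 min over 24 h; GFP-positive cell count normalized to confluence, three independent biological replicates.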

[3] = system: ATF6 activity in Hela ATF6 reporter cells; test: Endoplasmic reticulum stress assay (ATF6 Renilla luciferase reporter, tunicamycin); type: cell-based; details: for activity at 1 µM: Homo sapiens, HeLa, single replicates n=1 to n=5, read-out: ER stress [rel. ATF6 activity]
Outline: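 HeLa ATF6 Renilla reporter cells were pretreated 4 h with compounds in 0.1% DMSO, then stimulated with tunicamycin (100 ng/mL) for 18 h. Renilla luminescence (DualGlo) was normalized to 0.1% DMSO control; five independent experiments.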

HEK293T cells [4] = test: Cytotoxicity: metabolic activity (WST-8 / CCK-8 assay); details: 1 µM; HEK293T, 24 h; WST-8; normalized to 0.1% DMSO; single replicates
HEK293T cells [5] = test: Cytotoxicity: growth-rate (change in confluence over 24 h); details: 1 µM, normalized to 0.1% DMSO control, single replicates (n=1...)
Protocol: Cells were incubated with the test compounds at the indicated concentrations solubilized with 0.1% DMSO for 24 h. Growth-rate was determined based on the change in confluence over 24 h normalized to the change in confluence of cells treated with the 0.1% DMSO control (n = 10). Metabolic activity was determined with a water-soluble tetrazolium-8 (WST-8) assay (n = 8) after 24 h treatment. Apoptotic cells were detected with a fluorogenic DNA dye coupled to the caspase-3/7 recognition sequence (DEVD) after 24 h treatment and the apoptotic cell count was normalized to 0.1% DMSO treated cells (n = 6).
HEK293T cells (German Collection of Microorganisms and Cell Culture GmbH, DSMZ; #ACC305) were cultured in DMEM high glucose, supplemented with 10% fetal calf serum (FCS), sodium pyruvate (1 mM), penicillin (100 µ/mL) and streptomycin (100 µg/mL) at 37 °C and 5% (v/v) CO2, and seeded in pre-coated (10 µg/mL collagen G solution (Merck KgaA; #L7213) for 30 min at 37 °C) 96-well plates (2 × 10^5 cells per well). After 24 h, the cells were treated with the respective NR3 CG compound candidate at the recommended concentration, bexarotene (100 µM) or doxorubicin (30 µM) as positive controls in DMEM high glucose supplemented with 0.1% FCS, penicillin (100 µ/mL), streptomycin (100 µg/mL) and 0.1% DMSO, or 0.1% DMSO alone as an untreated control. Each sample was prepared in at least four biologically independent replicates. […] Thereafter, the medium was aspirated and the cells were incubated for 3 h with 90 µL DMEM high glucose supplemented with 0.2% FCS, penicillin (100 µ/mL) and streptomycin (100 µg/mL) and additionally containing 10 µL Cell Counting Kit 8 solution (CCK-8; MedChemExpress, Monmouth Junction, New York, USA; #HY-K0301), and absorbance was measured at 1 h, 2 h and 3 h of incubation at 450 nm on a Tecan Spark Cyto to assess metabolic activity of the cells. Before drug administration, after the first medium exchange, 24 h after drug administration, and after fluorescence imaging cell confluence was assessed using the Tecan Spark Cyto, to account for changes in cell confluence due to drug administration and cell handling. Compound effects on cell confluence, apoptosis, metabolic activity and necrosis were normalized to the vehicle control of each biological replicate individually.

HEK293T cells [6] = test: Cytotoxicity: apoptosis induction (caspase-3/7 DEVD fluorogenic DNA dye); details: 1 µM; HEK293T, 24 h; apoptotic cell count normalized to 0.1% DMSO; single replicates

T4 sequence (P22607 23-806, species assumed): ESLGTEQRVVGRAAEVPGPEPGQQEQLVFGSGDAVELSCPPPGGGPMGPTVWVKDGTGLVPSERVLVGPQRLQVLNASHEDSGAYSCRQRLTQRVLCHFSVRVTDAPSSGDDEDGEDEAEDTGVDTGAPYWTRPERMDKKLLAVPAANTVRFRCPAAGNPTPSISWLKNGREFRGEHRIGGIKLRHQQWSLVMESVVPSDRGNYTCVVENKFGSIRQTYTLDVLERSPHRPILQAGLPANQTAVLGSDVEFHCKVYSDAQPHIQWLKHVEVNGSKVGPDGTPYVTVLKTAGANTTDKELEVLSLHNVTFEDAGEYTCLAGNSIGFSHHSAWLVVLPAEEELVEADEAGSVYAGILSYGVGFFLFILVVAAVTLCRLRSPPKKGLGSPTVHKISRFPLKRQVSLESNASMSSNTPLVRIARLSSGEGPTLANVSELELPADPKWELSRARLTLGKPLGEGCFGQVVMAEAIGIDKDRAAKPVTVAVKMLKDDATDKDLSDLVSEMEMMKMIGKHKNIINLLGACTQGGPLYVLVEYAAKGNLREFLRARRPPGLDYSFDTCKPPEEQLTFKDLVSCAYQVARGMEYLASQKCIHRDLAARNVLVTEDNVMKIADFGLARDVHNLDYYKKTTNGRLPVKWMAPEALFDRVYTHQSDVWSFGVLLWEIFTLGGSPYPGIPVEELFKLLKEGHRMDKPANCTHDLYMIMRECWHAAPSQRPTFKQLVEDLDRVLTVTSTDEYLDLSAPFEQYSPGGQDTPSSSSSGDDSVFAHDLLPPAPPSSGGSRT
T1 sequence (P00519 whole entry, species assumed): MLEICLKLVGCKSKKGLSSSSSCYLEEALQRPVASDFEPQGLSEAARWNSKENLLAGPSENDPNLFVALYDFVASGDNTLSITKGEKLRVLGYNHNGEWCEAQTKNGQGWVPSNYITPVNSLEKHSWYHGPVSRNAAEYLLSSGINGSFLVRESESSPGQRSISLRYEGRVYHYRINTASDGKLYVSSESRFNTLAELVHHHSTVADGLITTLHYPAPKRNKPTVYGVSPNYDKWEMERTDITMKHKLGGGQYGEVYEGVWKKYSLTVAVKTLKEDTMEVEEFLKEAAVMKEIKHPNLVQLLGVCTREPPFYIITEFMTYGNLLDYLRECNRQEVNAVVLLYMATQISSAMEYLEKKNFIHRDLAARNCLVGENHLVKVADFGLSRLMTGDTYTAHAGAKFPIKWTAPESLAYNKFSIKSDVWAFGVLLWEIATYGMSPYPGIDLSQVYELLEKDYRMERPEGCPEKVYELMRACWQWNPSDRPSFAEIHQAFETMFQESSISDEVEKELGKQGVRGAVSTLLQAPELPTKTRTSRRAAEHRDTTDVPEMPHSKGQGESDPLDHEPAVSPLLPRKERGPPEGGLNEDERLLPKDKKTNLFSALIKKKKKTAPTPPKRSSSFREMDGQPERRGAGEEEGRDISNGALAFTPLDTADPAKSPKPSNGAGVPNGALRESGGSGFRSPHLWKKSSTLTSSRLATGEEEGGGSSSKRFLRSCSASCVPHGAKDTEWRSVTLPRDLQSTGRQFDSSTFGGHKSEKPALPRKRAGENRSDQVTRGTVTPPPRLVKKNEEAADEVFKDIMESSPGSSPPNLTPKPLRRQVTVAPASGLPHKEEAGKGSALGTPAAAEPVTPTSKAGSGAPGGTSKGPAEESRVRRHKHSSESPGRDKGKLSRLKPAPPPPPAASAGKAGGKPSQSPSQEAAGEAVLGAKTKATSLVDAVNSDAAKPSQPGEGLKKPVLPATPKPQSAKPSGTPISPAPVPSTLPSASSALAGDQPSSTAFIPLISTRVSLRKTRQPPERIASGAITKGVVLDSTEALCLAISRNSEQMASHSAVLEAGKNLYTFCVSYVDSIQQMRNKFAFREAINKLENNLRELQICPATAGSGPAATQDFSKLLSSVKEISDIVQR
T8 sequence (P48730 whole entry, species assumed): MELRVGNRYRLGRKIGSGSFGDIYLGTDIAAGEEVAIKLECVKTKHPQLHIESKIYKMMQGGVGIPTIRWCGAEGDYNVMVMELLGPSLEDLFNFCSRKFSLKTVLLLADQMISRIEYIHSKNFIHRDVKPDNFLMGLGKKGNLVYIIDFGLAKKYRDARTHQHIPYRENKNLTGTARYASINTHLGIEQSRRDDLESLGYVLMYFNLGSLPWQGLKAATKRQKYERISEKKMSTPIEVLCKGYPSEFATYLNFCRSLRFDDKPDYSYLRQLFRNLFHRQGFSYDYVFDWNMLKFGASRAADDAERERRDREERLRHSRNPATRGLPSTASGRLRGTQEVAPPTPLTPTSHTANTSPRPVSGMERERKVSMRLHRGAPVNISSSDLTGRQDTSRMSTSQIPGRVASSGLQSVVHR
T9 sequence (P28482 whole entry, species assumed): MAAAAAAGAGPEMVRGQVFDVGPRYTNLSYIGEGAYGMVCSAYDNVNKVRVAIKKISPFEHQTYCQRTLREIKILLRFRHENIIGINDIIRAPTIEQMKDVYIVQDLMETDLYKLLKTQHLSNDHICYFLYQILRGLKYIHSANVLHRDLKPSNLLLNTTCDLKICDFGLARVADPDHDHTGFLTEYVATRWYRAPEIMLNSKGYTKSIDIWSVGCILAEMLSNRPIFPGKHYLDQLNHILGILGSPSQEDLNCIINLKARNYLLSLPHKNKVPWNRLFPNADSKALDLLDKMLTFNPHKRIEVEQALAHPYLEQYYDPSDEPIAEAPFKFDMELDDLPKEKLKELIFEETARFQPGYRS
T5 sequence (P49841 whole entry, species assumed): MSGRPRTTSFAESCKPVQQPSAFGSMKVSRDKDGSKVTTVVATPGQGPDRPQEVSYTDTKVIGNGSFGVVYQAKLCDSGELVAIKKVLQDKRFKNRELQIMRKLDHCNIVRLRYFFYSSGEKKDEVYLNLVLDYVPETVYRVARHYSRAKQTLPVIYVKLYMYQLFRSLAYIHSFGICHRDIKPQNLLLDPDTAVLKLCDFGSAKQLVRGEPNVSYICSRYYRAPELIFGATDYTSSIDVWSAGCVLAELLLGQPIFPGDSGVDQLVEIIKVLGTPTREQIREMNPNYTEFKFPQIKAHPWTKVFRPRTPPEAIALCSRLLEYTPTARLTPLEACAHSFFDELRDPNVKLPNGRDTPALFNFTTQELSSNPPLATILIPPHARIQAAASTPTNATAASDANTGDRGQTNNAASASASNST

SMILES | Necrosis induction [NI] (HEK293T cells [1]) | Mean NFκB response ([2]; 1 µM, 1,5 h) | Mean NFκB response ([2]; 1 µM, 4,5 h) | Mean NFκB response ([2]; 1 µM, 7,5 h) | Mean NFκB response ([2]; 1 µM, 10,5 h) | Mean NFκB response ([2]; 1 µM, 13,5 h) | Mean NFκB response ([2]; 1 µM, 16,6 h) | Mean NFκB response ([2]; 1 µM, 19,5 h) | Mean NFκB response ([2]; 1 µM, 22,5 h) | Mean NFκB response ([2]; 1 µM, 3 h) | Mean NFκB response ([2]; 1 µM, 6 h) | Mean NFκB response ([2]; 1 µM, 9 h) | Mean NFκB response ([2]; 1 µM, 12 h) | Mean NFκB response ([2]; 1 µM, 15 h) | Mean NFκB response ([2]; 1 µM, 18 h) | Mean NFκB response ([2]; 1 µM, 21 h) | Mean NFκB response ([2]; 1 µM, 24 h) | activity at 1 µM [3] [%] | Metabolic activity [MA] (HEK293T cells [4]) | Growth rate [GR] (HEK293T cells [5]) | also measured
O=S(=O)(Cc1ccccc1)Nc1ccc(-c2ccc3c(cnn3-c3ccc(F)cc3)c2)c(C(F)(F)F)c1 [GSK9027] | 0.93 and 0.78 and 0.76 and 1.05 | 2917.80 GFP+-cells/confluence ∙ 1000 | 3437.70 GFP+-cells/confluence ∙ 1000 | 4957.90 GFP+-cells/confluence ∙ 1000 | 8098.89 GFP+-cells/confluence ∙ 1000 | 11113.03 GFP+-cells/confluence ∙ 1000 | 13521.21 GFP+-cells/confluence ∙ 1000 | 14898.72 GFP+-cells/confluence ∙ 1000 | 15985.14 GFP+-cells/confluence ∙ 1000 | 2869.62 GFP+-cells/confluence ∙ 1000 | 4105.89 GFP+-cells/confluence ∙ 1000 | 6294.49 GFP+-cells/confluence ∙ 1000 | 9593.56 GFP+-cells/confluence ∙ 1000 | 12593.25 GFP+-cells/confluence ∙ 1000 | 14186.97 GFP+-cells/confluence ∙ 1000 | 15313.70 GFP+-cells/confluence ∙ 1000 | 16630.14 GFP+-cells/confluence ∙ 1000 | 76 | 1.03 and 1.01 (3×) and 0.96 and 1.00 and 1.18 and 1.15 | 0.54 and 0.80 and 0.72 and 0.98 and 0.70 and 0.66 and 0.84 and 1.89 and 2.05 and 4.10 | ΔTm at 20 µM (ABL1): 1.8 °C; ΔTm at 20 µM (AURKA): 1.2 °C; ΔTm at 20 µM (CDK2): 0.1 °C; ΔTm at 20 µM (FGFR3): -0.29 °C; ΔTm at 20 µM (GSK3B): 1.24 °C; ΔTm at 20 µM (BRD4): 1.58 °C; ΔTm at 20 µM (BRPF1): 1.21 °C; ΔTm at 20 µM (CSNK1D): -1.92 °C; ΔTm at 20 µM (MAPK1): -2.07 °C; ΔTm at 20 µM (TRIM24): 1.36 °C; NF-κB activity (inflammatory response to ionomycin/PMA) ([2]; HEK293 NF-κB reporter cells, compounds at recommended concentrations, imaged over 24 h, n = 3): consistently delayed and strongly diminished NF-κB activity; ATF6 activity (tunicamycin-induced endoplasmic reticulum stress) ([3]; Hela ATF6 reporter cells, tunicamycin 100 ng/mL, 18 h, compounds at recommended concentrations, n = 5): Consistently weaker ATF6 activity; Apoptosis induction [AI] (HEK293T cells [6]): 0.65 and 1.04 and 0.83 and 0.94 and 0.36 and 0.86
O=C(/C=C/c1ccc(O)cc1)c1ccc(O)cc1O [Isoliquiritigenin] | 0.85 and 0.80 and 0.45 and 1.05 | 3578.42 GFP+-cells/confluence ∙ 1000 | 4286.96 GFP+-cells/confluence ∙ 1000 | 9277.37 GFP+-cells/confluence ∙ 1000 | 19586.05 GFP+-cells/confluence ∙ 1000 | 28313.33 GFP+-cells/confluence ∙ 1000 | 34970.00 GFP+-cells/confluence ∙ 1000 | 39776.67 GFP+-cells/confluence ∙ 1000 | 43150.00 GFP+-cells/confluence ∙ 1000 | 3834.99 GFP+-cells/confluence ∙ 1000 | 5800.94 GFP+-cells/confluence ∙ 1000 | 14742.34 GFP+-cells/confluence ∙ 1000 | 24113.33 GFP+-cells/confluence ∙ 1000 | 32050.00 GFP+-cells/confluence ∙ 1000 | 37423.33 GFP+-cells/confluence ∙ 1000 | 41230.00 GFP+-cells/confluence ∙ 1000 | 44476.67 GFP+-cells/confluence ∙ 1000 | 96 | 1.06 and 1.13 and 1.02 (2×) and 1.07 and 1.01 and 1.10 and 1.11 | 0.68 and 1.38 and 0.82 and 1.00 and 0.76 and 0.96 and 1.05 and 0.37 and 0.91 and 1.86 | ΔTm at 20 µM (ABL1; DSF, 20 µM, n=2): 6.6 °C; ΔTm at 20 µM (AURKA; DSF, 20 µM, n=2): 1.81 °C; ΔTm at 20 µM (CDK2; DSF, 20 µM, n=2): 1.64 °C; ΔTm at 20 µM (FGFR3; DSF, 20 µM, n=2): 1.26 °C; ΔTm at 20 µM (GSK3B; DSF, 20 µM, n=2): 2.87 °C; ΔTm at 20 µM (BRD4; DSF, 20 µM, n=2): 1.51 °C; ΔTm at 20 µM (BRPF1; DSF, 20 µM, n=2): 0.82 °C; ΔTm at 20 µM (CSNK1D; DSF, 20 µM, n=2): 1.31 °C; ΔTm at 20 µM (MAPK1; DSF, 20 µM, n=2): 1.33 °C; ΔTm at 20 µM (TRIM24; DSF, 20 µM, n=2): -0.0317 °C; Apoptosis induction [AI] (HEK293T cells [6]): 0.29 and 1.26 and 0.88 and 1.02 and 0.64 and 1.54
